# Read-outs that look alike come from different tables or passages of the source.
# Columns and labels:
# [1] = tested on: Bursaphelenchus xylophilus; test: whole plant or invertebrate
# Description: Bursaphelenchus xylophilus is the pathogen of pine wilt disease, which results in the death of a great number of pines in the south of China. The laboratory activities of sixteen-membered macrolide compounds, including tenvermectin, avermectin, ivermectin, milbemycin, and emamectin benzoate etc, were tested using Bursaphelenchus xylophilus as the test pest, in order to compare the difference of activities among these reagents on Bursaphelenchus xylophilus.
# Test reagents: 5 reagents, including 0.5% avermectin emulsifiable concentrate, 0.5% tenvermectin emulsifiable concentrate, 0.5% ivermectin emulsifiable concentrate, 2% milbemycin emulsifiable concentrate, and 2.5% emamectin benzoate microemulsion.
# Experiment method: Dipping method was employed. For each reagent, 5 concentrations were tested, including 2, 5, 10, 20, and 50 mg/L. For each concentration, there were 3 repeats. The results were statistically analyzed at 24 h.
# [2] = tested on: Bursaphelenchus xylophilus; test: Activity of tenvermectin A/B of different ratios on Bursaphelenchus xylophilus; type: in vivo; conditions: for LC50: in vivo
# Description: The activity of the mixture of tenvermectin A and tenvermectin B with different ratios was tested using Bursaphelenchus xylophilus as the test pest, in order to provide reference for modification and fermentation process of tenvermectin-producing bacteria.
# citrus spider mite = test: Prevention and control effect on citrus spider mite in field; type: in vivo, Panonychus citri McGregor; set-up: Amount of mites: unit not given here
# Description: Citrus spider mite (i.e., Panonychus citri McGregor) is one of the primary insect pests for citrus. It has properties, such as small body, fast propagation and multiple generations, which will cause severe damage to citrus. Tenvermectin was prepared as 2% water dispersible granules for the test of prevention and control of citrus spider mite, so as to determine its effect in field.
# Test reagents: 2% tenvermectin water dispersible granules (tenvermectin, ethanol and alkylphenol polyoxyethylene ether-formaldehyde condensate in a mass ratio of […]), and 2% avermectin emulsifiable concentrate
# Experiment time: in early May, at the young fruit stage of citrus.
# Experiment design: the reagents were diluted 2000-, 4000- and 8000-fold, to concentrations of 10 mg/L, 5 mg/L and 2.5 mg/L, respectively. For each concentration, there were 3 repeats. 10 citrus trees were comprised in one small area that was randomly arranged. Water was used as the control, in which 10 citrus trees were tested. 50 kg of reagent was sprayed for each concentration. The reagent was administrated on a sunny day with no rain in following 24 h.
# Data analysis: in each small area, 5 trees were examined. For each tree, 2 branches, each located in the east, the south, the west, the north and the center of the tree, were investigated. For each branch, the amount of live mites was counted for total 5 leaves. The amount of live mites was counted before administration and on day 3, 5, 7 and 14 after administration respectively, to calculate the reduction rate of the mite population. The prevention and control effect in field was determined based on the result.
# Tetranychus cinnabarinus = test: Laboratory activity assay on Tetranychus cinnabarinus, leaf disc dipping method; type: in vivo; conditions: foliar
# Description: (1) Laboratory activity assay of tenvermectin on Tetranychus cinnabarinus: the laboratory activity of tenvermectin was tested using Tetranychus cinnabarinus as the test pest, and using avermectin as the positive control. The activities were compared between tenvermectin and avermectin.
# Test organism: Tetranychus cinnabarinus: it was inoculated to horsebean seedling and cultured under the conditions of artificial climate [(26±1)° C., RH (70±5)%, H/D14].
# Test reagents: 96% (w/w) avermectin, 98% (w/w) tenvermectin (TEVA:TEVB=8:2): 1 g 96% avermectin and 98% tenvermectin were weighed and added to a beaker respectively, into which 93 g methanol and 6 g surfactant nonylphenol polyoxyethylene ether were added to give a preparation at a concentration of 10000 mg/L. The preparation was diluted with water into a series of concentrations: 0.005, 0.01, 0.025, and 0.05 mg/L for test.
# Experiment method: leaf disc dipping method was employed: adult mites that were raised in laboratory with consistent physiological state were selected. The horsebean leaves with consistent growth condition were selected. 2 cm leaf-discs were prepared using a puncher. The leaf-disc was placed on absorbent cotton in the center of a plastic dish with the back of blade upwards. […] The number of adult mites was counted under a stereomicroscope 2 h later, and the number should not be less than 20 on each leaf disc in the dish. […]
# [3] = 2 mg/L, 24 h, dipping, reagents applied as emulsifiable concentrate/microemulsion
# [4] = 2.5 mg/L, 3 d after administration, field spray
# [5] = 2.5 mg/L, 5 d after administration
# [6] = 2.5 mg/L, 7 d after administration
# [7] = 2.5 mg/L, 14 d after administration
# [8] = 5.0 mg/L, 3 d after administration
# [9] = 5.0 mg/L, 5 d after administration
# [10] = 5.0 mg/L, 7 d after administration
# [11] = 5.0 mg/L, 14 d after administration
# [12] = 10.0 mg/L, 3 d after administration
# [13] = 10.0 mg/L, 5 d after administration
# [14] = 10.0 mg/L, 7 d after administration
# [15] = 10.0 mg/L, 14 d after administration
# [16] = Bursaphelenchus xylophilus, 24 h, read-out: Mortality at different concentrations
molecule,measurement,setting,value
ivermectin,Mortality at different concentrations,[1]; [3],18.52%
same,Mortality at different concentrations,"[1]; 5 mg/L, 24 h, dipping",42.55%
same,Mortality at different concentrations,"[1]; 10 mg/L, 24 h, dipping",57.47%
same,Mortality at different concentrations,"[1]; 20 mg/L, 24 h, dipping",58.33%
same,Mortality at different concentrations,"[1]; 50 mg/L, 24 h, dipping",78.94%
same,LC50,"[1]; 24 h, dipping",11.0629 µg/mL
tenvermectin B,LC50,[2],3.4816 µg/mL
same,relative activity of tenvermectin A/B ratios on Bursaphelenchus xylophilus,[2]; in words,higher than that of tenvermectin A
emamectin benzoate,Mortality at different concentrations,[1]; [3],48.27%
same,Mortality at different concentrations,"[1]; 5 mg/L, 24 h, dipping",61.68%
same,Mortality at different concentrations,"[1]; 10 mg/L, 24 h, dipping",67.44%
same,Mortality at different concentrations,"[1]; 20 mg/L, 24 h, dipping",75%
same,Mortality at different concentrations,"[1]; 50 mg/L, 24 h, dipping",86.67%
same,LC50,"[1]; 24 h, dipping",2.8055 µg/mL
milbemycin,LC50,[1]; in vivo,5.0123 µg/mL
CC[C@H](C)[C@H]1O[C@]2(C=C[C@@H]1C)C[C@@H]1C[C@@H](C/C=C(\C)[C@@H](O[C@H]3C[C@H](OC)[C@@H](O[C@H]4C[C@H](OC)[C@@H](O)[C@H](C)O4)[C@H](C)O3)[C@@H](C)/C=C/C=C3\CO[C@@H]4[C@H](O)C(C)=C[C@@H](C(=O)O1)[C@]34O)O2 [avermectin],Amount of mites,citrus spider mite; [4],2.0
same,Effect,citrus spider mite; [4],80.5c
same,Amount of mites,citrus spider mite; [5],1.5
same,Effect,citrus spider mite; [5],86.7b
same,Amount of mites,citrus spider mite; [6],1.8
same,Effect,citrus spider mite; [6],87.3c
same,Amount of mites,citrus spider mite; [7],1.9
same,Effect,citrus spider mite; [7],80.1b
same,Amount of mites,citrus spider mite; [8],0.4
same,Effect,citrus spider mite; [8],91.2ab
same,Amount of mites,citrus spider mite; [9],1.0
same,Effect,citrus spider mite; [9],87.3b
same,Amount of mites,citrus spider mite; [10],1.3
same,Effect,citrus spider mite; [10],88.1c
same,Amount of mites,citrus spider mite; [11],1.4
same,Effect,citrus spider mite; [11],80.4b
same,Amount of mites,citrus spider mite; [12],1.4
same,Effect,citrus spider mite; [12],81.6c
same,Amount of mites,citrus spider mite; [13],1.1
same,Effect,citrus spider mite; [13],90.6b
same,Amount of mites,citrus spider mite; [14],0.7
same,Effect,citrus spider mite; [14],95.5c
same,Amount of mites,citrus spider mite; [15],5.3
same,Effect,citrus spider mite; [15],83.0b
same,LC50,Tetranychus cinnabarinus; 24 h,0.0083 µg/mL
same,LC50,Tetranychus cinnabarinus; read-out: LC50 on Tetranychus cinnabarinus,0.0083 µg/mL
same,LC50,"[1]; Bursaphelenchus xylophilus, 24 h",5.35 µg/mL
same,mortality at 2 µg/mL,[1]; [16],43.2%
same,mortality at 5 µg/mL,[1]; [16],46.1%
same,mortality at 10 µg/mL,[1]; [16],63.1%
same,mortality at 20 µg/mL,[1]; [16],66.9%
same,mortality at 50 µg/mL,[1]; [16],78%
tenvermectin A,LC50,[2],6.592 µg/mL

# Source: patent publication US10028507B2, “Sixteen-membered macrolide compound and applications thereof” (Zhejiang Hisun Pharmaceutical Co., Ltd., priority 2014, dated 2018)
